Test results reported in patent publication US7098350B2, “E2,E4,Z8-undecatrienoic acid and ester and carboxamide derivatives thereof, organoleptic uses thereof and processes for preparing same” (International Flavors & Fragrances Inc., priority 2003, dated 2006).

Legend:
[1] = Organoleptic and somatosensory properties (Table I); conditions: at 10 ppm
Description: Specific members of the 2,4,8-undecatrienoic acid derivative genus of our invention have organoleptic and somatosensory properties as set forth in the following Table I: […]

[2] = Taste evaluation in kiwi-flavored 30° proof alcoholic beverage; conditions: 3 ppm compound plus 200 ppm kiwi flavor blend in 30° proof alcoholic base; control has flavor blend only
Experimental: (§1) The following formulation was prepared: […]
Flavored beverages were prepared using the above 30° proof alcoholic base. A kiwi flavor was applied to the beverages. This flavor consisted of cis-3 hexenol, trans-2 hexenal, ethyl butyrate, ethyl-2-methyl butyrate, isoamyl butyrate, ethyl acetate, ethyl isovalerate, and trans-2-hexenol in equal proportions. The control beverage contained 200 ppm of the above flavor blend. […] Another beverage was prepared containing 200 ppm of the same flavor and 3 ppm of N-isobutyl E2,E4,Z8-undecatrienamide prepared according to Example 1(B).

[3] = Taste evaluation in cola-flavored hard candy; conditions: 50 ppm compound in cola-flavored hard candy; control without compound
Experimental: as §1
The above formulation was added to a stainless steel pot. With constant mixing, the formulation temperature was raised to 295° F. The pot was then removed from the heat, and 1.0 grams of a cola flavor containing the ingredients in equal amounts: cinnamic aldehyde, ginger oil, lemon oil, lime oil and nutmeg oil was added and blended with the sucrose-corn syrup-water formulation. After the blending was complete, 1.2 grams of citric acid was added. The resulting liquid candy was then deposited into molds, and the molds containing the liquid candy were cooled to room temperature, yielding 200 grams of finished hard candy. […] A second candy sample was prepared using the above recipe modified by the addition of 50 ppm of N-isobutyl E2, E4, Z8-undecatrienamide prepared according the procedure of Example 1 (B).

CC/C=C\CC/C=C/C=C/C(=O)NCC(C)C [N-isobutyl E2,E4,Z8-undecatrienamide]
Primary Flavor or Sensory Characteristic (sensation) [1]: Strong tingle at 10 ppm.
Flavor of beverage versus control [2]: slightly more melon rind in character than the control
Perception / somatosensory effect of beverage versus control [2]: enhanced perception of alcohol and a tingle effect on the tongue
Flavor and taste effect of hard candy versus control [3]: moderately strong and substantive cola profile, as well as a taste effect similar to carbonation
